ChEMBL document CHEMBL4689842, “EUbOPEN Chemogenomics Library wave 1” (2021)

Columns and labels:
Assay type in all cases: toxicity, cell-based
U2OS = assay: Incucyte cell viability with U2OS; conditions: human, 10 µM, compound concentration 10 uM
Fibroblast = assay: Incucyte cell viability with human fibroblast; conditions: 10 µM, compound concentration 10 uM
HEK-293T = assay: Incucyte cell viability with HEK293T; conditions: human, 10 µM, compound concentration 10 uM
[1] = 0 h, replicate number 1, timepoint 0 hours
[2] = 6 h, replicate number 1, timepoint 6 hours
[3] = 12 h, replicate number 1, timepoint 12 hours
[4] = 18 h, replicate number 1, timepoint 18 hours
[5] = 24 h, replicate number 1, timepoint 24 hours
[6] = 12 h, replicate number 2, timepoint 12 hours
[7] = 0 h, replicate number 2, timepoint 0 hours
[8] = 6 h, replicate number 2, timepoint 6 hours
[9] = 18 h, replicate number 2, timepoint 18 hours
[10] = 24 h, replicate number 2, timepoint 24 hours
Further: filed as whole numbers so only -1 and 0 and 1 occur.

Row | SMILES | Growth Rate (U2OS; [1]) | Growth Rate (U2OS; [2]) | Growth Rate (U2OS; [3]) | Growth Rate (U2OS; [4]) | Growth Rate (U2OS; [5]) | Growth Rate (Fibroblast; [1]) | Growth Rate (Fibroblast; [3]) | Growth Rate (Fibroblast; [6]) | Growth Rate (Fibroblast; [4]) | Growth Rate (Fibroblast; [5]) | Growth Rate (HEK-293T; [7]) | Growth Rate (HEK-293T; [2]) | Growth Rate (HEK-293T; [4]) | Growth Rate (HEK-293T; [5]) | Growth Rate (U2OS; [8]) | Growth Rate (U2OS; [10]) | Growth Rate (Fibroblast; [2]) | Growth Rate (HEK-293T; [3]) | Growth Rate (Fibroblast; [10]) | Growth Rate (HEK-293T; [1]) | also measured
1 | COc1cc2c(cc1-c1c(C)noc1C)ncc1[nH]c(=O)n([C@H](C)c3ccccn3)c12 | 0 | 1 | 1 | 1 | 1 | 0 | 1 | 0 | 0 | 0 | 0 | 0 | 0 | 0 | – | – | – | – | – | – | Growth Rate (HEK-293T; [6]): 0
2 | FC(F)(F)c1c(N2CCC(c3ccccc3)CC2)ccn2c(CC3CC3)nnc12 | – | 0 | 0 | 0 | 0 | 0 | 1 | – | 1 | 0 | 0 | 0 | 0 | 0 | 1 | 1 | 1 | 0 | – | – | Growth Rate (U2OS; [7]): 0; Growth Rate (U2OS; [6]): 1; Growth Rate (U2OS; [9]): 1; Growth Rate (Fibroblast; [9]): 0
3 | CCCc1cc(C)[nH]c(=O)c1CNC(=O)c1cc(-c2ccnc(N3CCN(C)CC3)c2)cc2c1cnn2C(C)C | 0 | 0 | 1 | 0 | 0 | 0 | 1 | – | 1 | 1 | 1 | 0 | 0 | 0 | – | 1 | – | 0 | 0 | – | Growth Rate (Fibroblast; [8]): 0; Growth Rate (Fibroblast; [9]): 0
4 | C[C@@H](NCCc1ccc(O)cc1)[C@@H](O)c1ccc(O)cc1.Cl (relative stereo) | 0 | – | 1 | 1 | 1 | 0 | – | – | – | – | – | 0 | 0 | 0 | 1 | – | – | 0 | 1 | 0 | Growth Rate (Fibroblast; [9]): 1; Growth Rate (HEK-293T; [8]): 1; Growth Rate (HEK-293T; [6]): 1
5 | CCCCN(CCCC)C(=O)CN1C[C@@H](c2cc(OC)c3c(c2)OCO3)[C@H](C(=O)O)[C@H]1CC(C)(C)CCC [A-545] | 0 | 0 | 0 | 0 | 0 | – | 0 | – | 0 | 0 | – | 0 | 0 | 0 | – | – | 0 | 0 | – | – | Growth Rate (U2OS; [6]): 1
6 | CCCOc1ccc([C@@H]2[C@@H](C(=O)O)[C@H](c3ccc4c(c3)OCO4)CN2CC(=O)Nc2c(CC)cccc2CC)cc1 [A-1806262] | 0 | 1 | 1 | 1 | 1 | 0 | 1 | 0 | 1 | 1 | – | 1 | 1 | 1 | 0 | 0 | 1 | 1 | 0 | 0 | Growth Rate (U2OS; [9]): 0; Growth Rate (Fibroblast; [7]): 1; Growth Rate (Fibroblast; [8]): 0; Growth Rate (Fibroblast; [9]): 0; Growth Rate (HEK-293T; [10]): 0
7 | NS(=O)(=O)c1cc(NC(=O)C2(c3ccccc3Cl)CC2)ccc1Oc1cccc(Cl)c1 [BAY-207] | 0 | 0 | 0 | 0 | 1 | 0 | – | 1 | 1 | 1 | – | 0 | 0 | 0 | – | 0 | 1 | 0 | – | 0 | Growth Rate (Fibroblast; [8]): 0
8 | CC1=C(C#N)C(c2ccc3c(c2)c(NC(=O)c2ccccc2C)nn3C)C(C#N)=C(C)N1 [BAY-974] | – | 1 | 1 | 1 | 1 | – | 1 | – | 1 | 1 | 1 | – | – | – | 0 | – | 1 | – | – | 0 | Growth Rate (U2OS; [7]): 0; Growth Rate (U2OS; [6]): 0; Growth Rate (Fibroblast; [7]): 0; Growth Rate (HEK-293T; [10]): 1
9 | C[C@H](c1ccnc(Nc2nc3ccc(-c4cc(N(C)C)ncn4)cc3[nH]2)c1)N1CCN(C(=O)CC(F)(F)F)CC1 [BAY-985] | 0 | 1 | 1 | 0 | 1 | 1 | 1 | – | 1 | 1 | 1 | – | – | – | – | – | 1 | – | – | 0 | Growth Rate (U2OS; [9]): 1; Growth Rate (HEK-293T; [10]): 1
10 | CC(=O)N1CCC(c2ccc(C(=O)NC3=NCCN3)cc2C(F)(F)F)CC1 [BI 0054] | 0 | – | 1 | 1 | 1 | 0 | 1 | – | 1 | 1 | 0 | 1 | 1 | 1 | – | – | 1 | 0 | – | 1 | Growth Rate (Fibroblast; [8]): 0; Growth Rate (HEK-293T; [8]): 0; Growth Rate (HEK-293T; [9]): 0; Growth Rate (HEK-293T; [10]): 0
11 | CN(C)C(=O)Cn1cc(-c2nc(C3(c4ccc(-c5cnc(N)nc5)cc4)CC3)no2)cn1 [BI 0153] | 0 | 0 | 0 | 0 | 0 | 1 | 0 | 1 | 0 | 0 | 1 | 0 | 0 | 0 | – | 1 | 0 | 0 | 1 | – | Growth Rate (Fibroblast; [7]): 0; Growth Rate (HEK-293T; [8]): 1; Growth Rate (HEK-293T; [6]): 1; Growth Rate (HEK-293T; [10]): 1
12 | CCC(=O)N[C@H]1CC[C@@H](C(=O)N(C)c2ccc(-c3nc4ccccc4o3)cc2)C1 [BI 99179] | 0 | 0 | 1 | 1 | 1 | 0 | 1 | – | 0 | 0 | 1 | 0 | 0 | 0 | 1 | 0 | 1 | 0 | 1 | – | Growth Rate (U2OS; [9]): 0; Growth Rate (Fibroblast; [7]): 1
13 | CCC(=O)N[C@@H]1CC[C@H](C(=O)N(C)c2ccc(-c3nc4ccccc4o3)cc2)C1 [BI 99990] | 0 | 0 | 0 | 0 | 0 | 0 | 0 | – | 0 | 1 | 1 | 0 | 0 | 0 | 1 | – | 0 | 0 | 0 | 0 | Growth Rate (U2OS; [6]): 1
14 | CS(=O)(=O)c1cc(C2(NC(=O)c3cncc4c3cnn4-c3ccc(F)cc3)CC2)ccn1 [BI 639667] | 0 | – | 1 | 0 | 1 | 0 | 1 | 0 | 0 | 0 | – | 1 | 1 | 1 | 1 | – | 1 | 1 | – | 0 | Growth Rate (U2OS; [7]): 1; Growth Rate (U2OS; [6]): 0; Growth Rate (U2OS; [9]): 1; Growth Rate (Fibroblast; [8]): 0; Growth Rate (HEK-293T; [8]): 0; Growth Rate (HEK-293T; [6]): 0
